Measured values published in patent publication US11278555B2, “Combinational therapies for treatment of cancer comprising a bacteriochlorophyll derivative” (Yeda Research and Development Co. Ltd., priority 2016, dated 2022).

Experiments:
[1] = tested on: orthotopic 4T1-Luc tumors; assay: STL-6014 PDT and metronomic Gemzar in mice bearing 4T1-Luc tumors in the mammary pad (Scheme 1): primary tumor, survival, lung metastases, re-challenge; type: in vivo, Balb/c mice
Experimental: (§1) • (i) Bacteriochlorophyll Derivatives—The Bchl derivatives and RGD-conjugates thereof were provided by Steba Biotech (Rehovot, Israel). […] Concentration was verified by spectrophotometric measurement. STL-7012 was provided as dipotassium salt. Working solution was prepared by dissolving STL-7012 K^+ salt in 5% mannitol solution (1 mg/ml). […] WST11 was supplied as a powder and kept in the dark at −20° C. Stock was prepared by dissolving WST11 in DDW containing 5% glucose and 0.67% mannitol, aliquoted and lyophilized. Working solution was reconstituted with DDW and the concentration of solution was confirmed spectrophotometrically. Alternatively, Clinical WST11 (batch: P00611, and 10-130611) was supplied as lyophilized formulation. Material was dissolved in 5% dextrose, aliquoted and stored at −20° C. At the day of treatment the aliquot was thawed, filtered and the concentration of solution was confirmed spectrophotometrically. • (ii) Chemotherapeutic drugs preparation and storage—Gemcitabine (GEM, Gemzar®, Lilly) was purchased from a local pharmacy as a powder, dissolved in saline to a concentration of 38 mg/ml, aliquoted and stored at −20° C. Aliquots were thawed, diluted with saline to a desired concentration and used on the same day at a dose of 75 mg/kg. Cyclophosphamide (CTX, Endoxan®, Baxter Oncology Gmbh, Germany) was purchased from a local pharmacy. A stock solution of 20 mg/ml was prepared by dissolving in 0.9% NaCl, aliquoted and stored at −20° C. Aliquots were thawed, diluted with saline if needed to a desired concentration and used on the same day prepared at indicated doses. • (iii) Murine cell lines—Mammary luciferase (luc)-labeled 4T1 cell line (4T1-Luc) was a kind gift from Dr. Zvi Granot (Faculty of Medicine, The Hebrew University of Jerusalem, Israel); melanoma B16-F10 cell line was obtained from the American Type Culture Collection (ATCC, Manassas, Va.); bladder MB49 cell line was a kind gift from James Allison (MSKCC, New York, USA), and luc-labeled MB49-cell line was established using the murine stem cell virus (MSCV)-puromycin-luc-GFP construct (kindly provided by Dr. Emily Cheng, Human Oncology and Pathogenesis Program, MSKCC). 4T1 and MB49 cells were maintained in DMEM medium and B16-F10 cells in RPMI medium supplemented with 1 mmol/L sodium pyruvate, 10% fetal calf serum (FCS), 250 μg/ml hygromycin, 0.06 mg/ml penicillin and 0.1 mg/ml streptomycin. The cells were grown as monolayer at 37° C. in a humidified atmosphere (5% CO2, 95% air). • (iv) Murine tumor models—Female, Balb/c mice (6-8 week old) were grafted either subcutaneously (s.c.) into the right hind leg or orthotopically with 1×10^6 4T1 cells suspended in 50 or 1000 PBS. For the rechallenge study, 2×10^5 4T1 cells were orthotopically grafted. For bladder cancer model, 5×10^4 of MB49 or MB49-luciferase cell line were s.c. injected into the right flank of C57B/6 male mice (7-8 weeks old, Taconic, Hudson, N.Y.) 15 days prior to VTP treatment. For the efficacy study of VTP in immune compromised mice, the same number of MB49 cells was injected in the flank of Rag^−/− on C57B/6 background or C57B/6 male mice (7-8 week old, Jackson Laboratory, Bar Harbor, Me.). […] Whole body imaging of luciferase-transfected tumors and metastases were recorded five minutes following 75 mg Kg^−1 intraperitoneal (i.p.) injection of D-luciferin with respective filter sets. • (vi) PDT treatment protocol: 4T1-Luc cells were grafted in the mammary pad of Balb/c mice. […]

[2] = tested on: splenic immune cells of 4T1-bearing mice; assay: FACS profile of splenic immune cell populations in 4T1-bearing mice after STL-6014 PDT and Gemzar; type: in vivo
Experimental: as §1

[3] = tested on: s.c. 4T1-luc breast tumors; assay: WST11 VTP with or without single dose CTX in mice bearing s.c. 4T1-luc tumors in the hind leg (Scheme 4); type: in vivo, Balb/c mice; settings: CTX 50 or 150 mg/kg alone; WST11 VTP at low light intensity (100 mW/cm^2) alone; or combination
Experimental: (§2) • (i) Bacteriochlorophyll Derivatives—The Bchl derivatives and RGD-conjugates thereof were provided by Steba Biotech (Rehovot, Israel). […] Concentration was verified by spectrophotometric measurement. STL-7012 was provided as dipotassium salt. Working solution was prepared by dissolving STL-7012 K^+ salt in 5% mannitol solution (1 mg/ml). […] WST11 was supplied as a powder and kept in the dark at −20° C. Stock was prepared by dissolving WST11 in DDW containing 5% glucose and 0.67% mannitol, aliquoted and lyophilized. Working solution was reconstituted with DDW and the concentration of solution was confirmed spectrophotometrically. Alternatively, Clinical WST11 (batch: P00611, and 10-130611) was supplied as lyophilized formulation. Material was dissolved in 5% dextrose, aliquoted and stored at −20° C. […] Aliquots were thawed, diluted with saline to a desired concentration and used on the same day at a dose of 75 mg/kg. Cyclophosphamide (CTX, Endoxan®, Baxter Oncology Gmbh, Germany) was purchased from a local pharmacy. A stock solution of 20 mg/ml was prepared by dissolving in 0.9% NaCl, aliquoted and stored at −20° C. Aliquots were thawed, diluted with saline if needed to a desired concentration and used on the same day prepared at indicated doses. • (iii) Murine cell lines—Mammary luciferase (luc)-labeled 4T1 cell line (4T1-Luc) was a kind gift from Dr. Zvi Granot (Faculty of Medicine, The Hebrew University of Jerusalem, Israel); melanoma B16-F10 cell line was obtained from the American Type Culture Collection (ATCC, Manassas, Va.); bladder MB49 cell line was a kind gift from James Allison (MSKCC, New York, USA), and luc-labeled MB49-cell line was established using the murine stem cell virus (MSCV)-puromycin-luc-GFP construct (kindly provided by Dr. Emily Cheng, Human Oncology and Pathogenesis Program, MSKCC). 4T1 and MB49 cells were maintained in DMEM medium and B16-F10 cells in RPMI medium supplemented with 1 mmol/L sodium pyruvate, 10% fetal calf serum (FCS), 250 μg/ml hygromycin, 0.06 mg/ml penicillin and 0.1 mg/ml streptomycin. The cells were grown as monolayer at 37° C. in a humidified atmosphere (5% CO2, 95% air). • (iv) Murine tumor models—Female, Balb/c mice (6-8 week old) were grafted either subcutaneously (s.c.) into the right hind leg or orthotopically with 1×10^6 4T1 cells suspended in 50 or 1000 PBS. […] Whole body imaging of luciferase-transfected tumors and metastases were recorded five minutes following 75 mg Kg^−1 intraperitoneal (i.p.) injection of D-luciferin with respective filter sets. • (vi) PDT treatment protocol: 4T1-Luc cells were grafted in the mammary pad of Balb/c mice. […] Ablation of primary tumors was assessed every 7 days by imaging the tumor's luciferase-mediated bioluminescence signal, using IVIS.

[4] = tested on: Foxp3+ Treg, CD8+ T cells, G-MDSC/neutrophils; type: in vivo
Experimental: as §2

[5] = tested on: orthotopic 4T1-Luc breast tumors; assay: Whole-body NIR fluorescence imaging of accumulation and clearance in 4T1 tumor bearing mice; type: in vivo; settings: i.v.
Experimental: • (i) Bacteriochlorophyll Derivatives—The Bchl derivatives and RGD-conjugates thereof were provided by Steba Biotech (Rehovot, Israel). […] Concentration was verified by spectrophotometric measurement. STL-7012 was provided as dipotassium salt. Working solution was prepared by dissolving STL-7012 K^+ salt in 5% mannitol solution (1 mg/ml). […] WST11 was supplied as a powder and kept in the dark at −20° C. Stock was prepared by dissolving WST11 in DDW containing 5% glucose and 0.67% mannitol, aliquoted and lyophilized. Working solution was reconstituted with DDW and the concentration of solution was confirmed spectrophotometrically. Alternatively, Clinical WST11 (batch: P00611, and 10-130611) was supplied as lyophilized formulation. Material was dissolved in 5% dextrose, aliquoted and stored at −20° C. […] Aliquots were thawed, diluted with saline to a desired concentration and used on the same day at a dose of 75 mg/kg. […] Whole body imaging of luciferase-transfected tumors and metastases were recorded five minutes following 75 mg Kg^−1 intraperitoneal (i.p.) injection of D-luciferin with respective filter sets. • (vi) PDT treatment protocol: 4T1-Luc cells were grafted in the mammary pad of Balb/c mice. […] Ablation of primary tumors was assessed every 7 days by imaging the tumor's luciferase-mediated bioluminescence signal, using IVIS.

## 3^1-oxo-15-methoxycarbonylmethyl-Rhodobacteriochlorin 13^1-(2-sulfoethyl)amide-17^3-(cycloRGDfK) amide potassium salt [STL-6014]
[1]; 120 days follow up, monotherapy
  survival compared to control (Kaplan-Meier): did not show any significant survival difference
[1]; day 30 post treatment
  animals with primary tumor regrowth: 82%
[2]; first week post treatment
  percentage of G-MDSC/neutrophils and M-MDSC in spleen compared to control: significantly reduced
[2]; mouse, in vivo
  effect on Treg populations in spleen compared with controls: Much smaller effects

## O=P1(N(CCCl)CCCl)NCCCO1 (stereo not shown) [CTX, Cyclophosphamide]
[3]
  primary tumor growth: unable to suppress primary tumor growth
[4]; low dose CTX three days prior VTP, on the VTP day
  number of cells in the draining lymph nodes and spleens: reduced
[4]; three days after CTX administration
  tumor infiltration by regulatory Foxp3+ T cells: significantly reduces
[4]; three days post low dose CTX (VTP day)
  G-MDSC/neutrophils in the tumor microenvironment: reduced

## CC[C@H]1c2cc3[nH]c(c(CC(=O)OC)c4nc(cc5[nH]c(cc(n2)[C@@H]1C)c(C(C)=O)c5C)[C@@H](C)[C@@H]4CCC(=O)O)c(C(=O)NCCS(=O)(=O)[O-])c3C.[K+] [STL-7012, 3^1-oxo-15-methoxycarbonylmethyl-Rhodobacteriochlorin 13^1-(2-sulfoethyl) amide dipotassium salt]
[5]
  clearance: cleared through the liver within a few hours of injection
[5]; STL-6014 7.5 mg/kg, STL-7012 9.5 mg/kg
  accumulation in the tumor (NIR fluorescence): did not accumulate in the tumor
